Laboratory results taken from PubChem BioAssay (NCI).
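Results reflect a 48-hour exposure of cells in 96-well plates to compound at five concentrations. GI50 marks 50% less growth. TGI marks complete inhibition of growth.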

Legend:
Test in all cases: NCI anticancer screen, dose series, 48 h
UO-31 renal = tested on: UO-31 renal
COLO 205 colon = tested on: COLO 205 colon
EKVX NSCLC = tested on: EKVX NSCLC
MOLT-4 leukemia = tested on: MOLT-4 leukemia
UACC-62 melanoma = tested on: UACC-62 melanoma
MALME-3M melanoma = tested on: MALME-3M melanoma
CCRF-CEM leukemia = tested on: CCRF-CEM leukemia
ACHN renal = tested on: ACHN renal
KM12 colon = tested on: KM12 colon
786-0 renal = tested on: 786-0 renal
SK-MEL-2 melanoma = tested on: SK-MEL-2 melanoma
SNB-75 CNS = tested on: SNB-75 CNS
HCT-116 colon = tested on: HCT-116 colon
MDA-MB-231 breast = tested on: MDA-MB-231 breast
M14 melanoma = tested on: M14 melanoma
RPMI-8226 leukemia = tested on: RPMI-8226 leukemia
CAKI-1 renal = tested on: CAKI-1 renal
SW-620 colon = tested on: SW-620 colon
SR leukemia = tested on: SR leukemia
OVCAR-8 ovarian = tested on: OVCAR-8 ovarian
HOP-62 NSCLC = tested on: HOP-62 NSCLC
OVCAR-5 ovarian = tested on: OVCAR-5 ovarian
SK-MEL-28 melanoma = tested on: SK-MEL-28 melanoma
HOP-92 NSCLC = tested on: HOP-92 NSCLC
OVCAR-3 ovarian = tested on: OVCAR-3 ovarian
TK-10 renal = tested on: TK-10 renal
A549 NSCLC = tested on: A549 NSCLC
HS 578T breast = tested on: HS 578T breast
SK-MEL-5 melanoma = tested on: SK-MEL-5 melanoma
SF-539 CNS = tested on: SF-539 CNS
A498 renal = tested on: A498 renal
SF-268 CNS = tested on: SF-268 CNS
PC-3 prostate = tested on: PC-3 prostate
IGROV1 ovarian = tested on: IGROV1 ovarian
HCC-2998 colon = tested on: HCC-2998 colon
BT-549 breast = tested on: BT-549 breast
MCF7 breast = tested on: MCF7 breast
HCT-15 colon = tested on: HCT-15 colon
NCI-H460 lung = tested on: NCI-H460 lung
OVCAR-4 ovarian = tested on: OVCAR-4 ovarian
LOX IMVI melanoma = tested on: LOX IMVI melanoma
HT29 colon = tested on: HT29 colon
SNB-19 CNS = tested on: SNB-19 CNS
MDA-MB-435 = tested on: MDA-MB-435
UACC-257 melanoma = tested on: UACC-257 melanoma
DU-145 prostate = tested on: DU-145 prostate
NCI/ADR-RES ovarian = tested on: NCI/ADR-RES ovarian
NCI-H522 lung = tested on: NCI-H522 lung
SN12C renal = tested on: SN12C renal
RXF 393 renal = tested on: RXF 393 renal
T-47D breast = tested on: T-47D breast
NCI-H23 lung = tested on: NCI-H23 lung
U251 CNS = tested on: U251 CNS
NCI-H226 lung = tested on: NCI-H226 lung
SK-OV-3 ovarian = tested on: SK-OV-3 ovarian
HL-60(TB) leukemia = tested on: HL-60(TB) leukemia

With `COc1cc(/C=C\c2cc(OC)c(OC)c(OC)c2)cc(NC(=O)/C=C/c2cc(OC)c(OC)c(OC)c2)c1OC` the GI50 (UO-31 renal) was 1.09 µM, the TGI (UO-31 renal) was greater than 100 µM and the GI50 (COLO 205 colon) was 4.2 µM. It also gave a TGI (COLO 205 colon) greater than 100 µM, a GI50 (EKVX NSCLC) of 15.7 µM and a TGI (EKVX NSCLC) greater than 100 µM. The GI50 (MOLT-4 leukemia) was 3.15 µM, the TGI (MOLT-4 leukemia) was greater than 100 µM and the GI50 (UACC-62 melanoma) was 2.19 µM. It also gave a TGI (UACC-62 melanoma) greater than 100 µM, a GI50 (MALME-3M melanoma) of 3.34 µM and a TGI (MALME-3M melanoma) greater than 100 µM. For the same molecule, the GI50 (CCRF-CEM leukemia) was 2.67 µM, the TGI (CCRF-CEM leukemia) was greater than 100 µM and the GI50 (ACHN renal) was 8.38 µM. For the same molecule, the TGI (ACHN renal) was greater than 100 µM, the GI50 (KM12 colon) was 3.42 µM and the TGI (KM12 colon) was greater than 100 µM. The GI50 (786-0 renal) was 6.22 µM, the TGI (786-0 renal) was greater than 100 µM and the GI50 (SK-MEL-2 melanoma) was 2.69 µM. For the same molecule, the TGI (SK-MEL-2 melanoma) was 9.77 µM, the GI50 (SNB-75 CNS) was 1.82 µM and the TGI (SNB-75 CNS) was greater than 100 µM. It also gave a GI50 (HCT-116 colon) of 4.57 µM, a TGI (HCT-116 colon) greater than 100 µM and a GI50 (MDA-MB-231 breast) of 5.43 µM. It also gave a TGI (MDA-MB-231 breast) greater than 100 µM, a GI50 (M14 melanoma) of 3.78 µM and a TGI (M14 melanoma) greater than 100 µM. For the same molecule, the GI50 (RPMI-8226 leukemia) was 1.36 µM, the TGI (RPMI-8226 leukemia) was greater than 100 µM and the GI50 (CAKI-1 renal) was 2.8 µM. It also gave a TGI (CAKI-1 renal) greater than 100 µM, a GI50 (SW-620 colon) of 5.89 µM and a TGI (SW-620 colon) greater than 100 µM. For the same molecule, the GI50 (SR leukemia) was 0.23 µM, the TGI (SR leukemia) was greater than 100 µM and the GI50 (OVCAR-8 ovarian) was 6.68 µM. For the same molecule, the TGI (OVCAR-8 ovarian) was greater than 100 µM, the GI50 (HOP-62 NSCLC) was 7.21 µM and the TGI (HOP-62 NSCLC) was greater than 100 µM. For the same molecule, the GI50 (OVCAR-5 ovarian) was greater than 100 µM, the TGI (OVCAR-5 ovarian) was greater than 100 µM and the GI50 (SK-MEL-28 melanoma) was 3.51 µM. The TGI (SK-MEL-28 melanoma) was greater than 100 µM, the GI50 (HOP-92 NSCLC) was 4.68 µM and the TGI (HOP-92 NSCLC) was greater than 100 µM. The GI50 (OVCAR-3 ovarian) was 10.8 µM, the TGI (OVCAR-3 ovarian) was greater than 100 µM and the GI50 (TK-10 renal) was 6.72 µM. The TGI (TK-10 renal) was greater than 100 µM, the GI50 (A549 NSCLC) was 4.49 µM and the TGI (A549 NSCLC) was greater than 100 µM. For the same molecule, the GI50 (HS 578T breast) was greater than 100 µM, the TGI (HS 578T breast) was greater than 100 µM and the GI50 (SK-MEL-5 melanoma) was 1.66 µM. The TGI (SK-MEL-5 melanoma) was 3.97 µM, the GI50 (SF-539 CNS) was 7.58 µM and the TGI (SF-539 CNS) was greater than 100 µM. For the same molecule, the GI50 (A498 renal) was 5.21 µM, the TGI (A498 renal) was greater than 100 µM and the GI50 (SF-268 CNS) was greater than 100 µM. The TGI (SF-268 CNS) was greater than 100 µM, the GI50 (PC-3 prostate) was 3.02 µM and the TGI (PC-3 prostate) was greater than 100 µM. The GI50 (IGROV1 ovarian) was 6.61 µM, the TGI (IGROV1 ovarian) was greater than 100 µM and the GI50 (HCC-2998 colon) was greater than 100 µM. The TGI (HCC-2998 colon) was greater than 100 µM, the GI50 (BT-549 breast) was 2.92 µM and the TGI (BT-549 breast) was greater than 100 µM. The GI50 (MCF7 breast) was 3.49 µM, the TGI (MCF7 breast) was greater than 100 µM and the GI50 (HCT-15 colon) was 5.51 µM. For the same molecule, the TGI (HCT-15 colon) was greater than 100 µM, the GI50 (NCI-H460 lung) was 5.39 µM and the TGI (NCI-H460 lung) was greater than 100 µM. For the same molecule, the GI50 (OVCAR-4 ovarian) was 3.86 µM, the TGI (OVCAR-4 ovarian) was greater than 100 µM and the GI50 (LOX IMVI melanoma) was 4.51 µM. For the same molecule, the TGI (LOX IMVI melanoma) was greater than 100 µM, the GI50 (HT29 colon) was 3.87 µM and the TGI (HT29 colon) was greater than 100 µM. For the same molecule, the GI50 (SNB-19 CNS) was 48.6 µM, the TGI (SNB-19 CNS) was greater than 100 µM and the GI50 (MDA-MB-435) was 1.54 µM. The TGI (MDA-MB-435) was 4.84 µM, the GI50 (UACC-257 melanoma) was 10.1 µM and the TGI (UACC-257 melanoma) was greater than 100 µM. For the same molecule, the GI50 (DU-145 prostate) was greater than 100 µM, the TGI (DU-145 prostate) was greater than 100 µM and the GI50 (NCI/ADR-RES ovarian) was 2.77 µM. For the same molecule, the TGI (NCI/ADR-RES ovarian) was greater than 100 µM, the GI50 (NCI-H522 lung) was 2.73 µM and the TGI (NCI-H522 lung) was greater than 100 µM. It also gave a GI50 (SN12C renal) of 27.6 µM, a TGI (SN12C renal) greater than 100 µM and a GI50 (RXF 393 renal) of 4.77 µM. It also gave a TGI (RXF 393 renal) greater than 100 µM, a GI50 (T-47D breast) of 3.11 µM and a TGI (T-47D breast) greater than 100 µM. For the same molecule, the GI50 (NCI-H23 lung) was 5.27 µM, the TGI (NCI-H23 lung) was greater than 100 µM and the GI50 (U251 CNS) was 6.71 µM. The TGI (U251 CNS) was greater than 100 µM, the GI50 (NCI-H226 lung) was 50 µM and the TGI (NCI-H226 lung) was greater than 100 µM. The GI50 (SK-OV-3 ovarian) was 6.62 µM, the TGI (SK-OV-3 ovarian) was greater than 100 µM and the GI50 (HL-60(TB) leukemia) was 0.509 µM. The TGI (HL-60(TB) leukemia) was 4.46 µM.
